One assay deals with PD-L1. The assay is described as follows: Serum PD-L1 ELISA in MC38 tumor-bearing mice. To be noted: MC38-induced colon tumor-bearing mice, SSRI treatment. Type of assay: in vivo, C57BL/6J mice. As for the experimental part:
FIG. 13 depicts 5-HTR2B signaling promotes PD-L1 expression on the MC38 cell line in vitro: (A-B) MC38 cells are treated with 5-HTR2B agonist (BW-723C86-50 μM), serotonin (100 μM), and 5-HTR2B antagonist (RS-127445-50 μM) for 72 hours, and the PD-L1 expression was checked by flow cytometry and the percentage of PD-L1^+ MC38 cells was plotted. (C-D) MFI of PD-L1 from the above experiment were plotted as histogram overlay (C) or as statistical data points (D). (E) Relative PD-L1 mRNA expression in MC38 cells following BW-723C86 and RS-127445 treatment for 48 hours. Here the values are shown as a fold change as compared to control MC38 cells. […] All the statistical analysis was performed using either Student's ‘t’ test or two-way ANOVA using Sidak's multiple comparison test. *P<0.05; **P<0.01; […]; ****P<0.0001 Error bar represents mean±standard error of means (SEM).
(§1) Universal competitive serotonin ELISA kit was purchased from Novus biological (Catalog #NBP2-68127), and ELISA was performed according to the manufacturer's protocol. Mouse PD-L1 DuoSet ELISA kit was procured from the R&D System (Catalog #DY1019-05), and the ELISA was performed according to the manufacturer's guidelines.
To understand it, investigations were done on whether 5-HTR2B signaling also affects the surface expression of molecules that alters inflammatory and cytotoxic immune cells. Among different molecules, PD-L1 is of particular interest as it is an immune checkpoint ligand that affects cytotoxic T-cell responses toward cancer. […] (FIG. 13F).

In a further assay the test system is MC38 colon cancer cells. The assay is described as follows: MC38 colon tumor growth (tumor volume) in C57BL/6 mice. Type of assay: in vivo. The note with it: sertraline hydrochloride 15 mg/kg/week (FIG. 7C).
The next assay deals with serotonin. The assay is described as follows: Serum serotonin level in MC38 colon tumor-bearing mice. Type of assay: in vivo. To be noted: MC38-induced colon tumor-bearing mice, SSRI treatment. Here is the method:
This secretory variant of PD-L1 is responsible for most of the resistance to the anti-PD-L1 therapy in the tumor.
as §1

Procedure for MC38 colon cancer cells: Tumor volumes were measured and plotted. (B) MC38 colon cancer cells were injected subcutaneously into the right flank of C57BL/6 mice. After seven days when tumors became palpable, one group was treated with 5-HTR7 antagonist SB-269970 (n=6 mice; 3 mg/kg/day) or left untreated (n=6 mice). Tumor volume was measured and plotted. (C) After seven days of the setting of tumor growth, one group was treated with a serotonin transporter blocker (SSRI) sertraline hydrochloride (n=6 mice; 15 mg/kg/week) or left untreated (n=6 mice). Tumor volume was measured and plotted. (D) C57BL/6 mice were given subcutaneously injected MC38 cells. After seven days of tumor growth, one group of mice was treated with different doses of 5-HTR2B antagonist SB-215505 (n=6). Tumor volume was measured and plotted. (E) C57BL/6 mice were given subcutaneously injected MC38 cells. After seven days of the tumor growth, one group of mice was treated with different doses of 5-HTR2B antagonist SB-215505 (n=6), one group treated with 5-HTR2B agonist BW-723C86 (n=6; 4 mg/kg/day). Tumor volume was measured and plotted. (F) MC38 cells were subcutaneously injected into C57BL/6 mice. After seven days when the tumor became palpable in mice, one group of mice was treated with FDA-approved 5-HTR2B antagonist cariprazine (Carispec; Sun pharma) via oral gavage (n=5 mice; dose 5 mg/kg body weight/day) or left untreated (n=5 mice). Tumor growth was measured and plotted. […] All the statistical analysis was performed using Student's ‘t’ test or two-way ANOVA using Sidak's multiple comparison test. *P<0.05; **P<0.01; ***P<0.00; ****P<0.0001 Error bar represents mean±standard error of means (SEM).

With `CN[C@H]1CC[C@@H](c2ccc(Cl)c(Cl)c2)c2ccccc21` [sertraline], the “secretory PD-L1 variant level in the serum” value in the assay with PD-L1 is given as “enhanced the secretory PD-L1 variant level in the serum”. Further, the MC38 tumor growth result with MC38 colon cancer cells was “promotes MC38 tumor growth”. Also, the “free serotonin level in the serum” value with serotonin is “increased free serotonin level in the serum”.

These data come from patent US20240408071A1, “NOVEL COMBINATION OF SEROTONIN RECEPTOR (5-HTR2B) ANTAGONIST AND AN IMMUNOMODULATOR AND CHEMOTHERAPEUTIC DRUGS FOR INHIBITION OF CANCER” (NATIONAL CENTRE FOR CELL SCIENCE, priority 2021, published 2024).
